These results are taken from patent US20220220103A1, “CYCLIN-DEPENDENT KINASE INHIBITORS” (SPV THERAPEUTICS INC., priority 2018, published 2022).

Values joined by “and” are separate entries in the source; they are usually repeats but may differ in a detail not shown here. Equal entries are not always repeated. Where two headings read alike, the source gives them in different places. A value given as a limit tells only on which side of the number the result lay.

The target of one assay is CDK4-CYCLIND1 (Homo sapiens, UniProt P11802). Briefly: Microfluidic LabChip inhibition assay, CDK4-CYCLIND1. The class given is biochemical. Particulars: ATP 200 μM. As for the experimental part: (§1) The reaction was terminated by the addition of EDTA. The plates were analyzed using a Caliper LabChip 3000.
Chain of CDK4-CYCLIND1 (P11802 whole entry): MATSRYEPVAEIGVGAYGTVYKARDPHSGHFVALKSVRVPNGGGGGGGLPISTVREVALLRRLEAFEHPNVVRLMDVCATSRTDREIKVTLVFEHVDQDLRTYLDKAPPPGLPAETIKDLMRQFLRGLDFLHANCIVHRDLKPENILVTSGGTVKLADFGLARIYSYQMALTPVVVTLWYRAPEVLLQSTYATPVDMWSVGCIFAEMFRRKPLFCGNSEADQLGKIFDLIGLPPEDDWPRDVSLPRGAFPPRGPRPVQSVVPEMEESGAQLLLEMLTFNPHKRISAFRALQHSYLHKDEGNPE
Chain of CDK4-CYCLIND1 (P24385 whole entry partner): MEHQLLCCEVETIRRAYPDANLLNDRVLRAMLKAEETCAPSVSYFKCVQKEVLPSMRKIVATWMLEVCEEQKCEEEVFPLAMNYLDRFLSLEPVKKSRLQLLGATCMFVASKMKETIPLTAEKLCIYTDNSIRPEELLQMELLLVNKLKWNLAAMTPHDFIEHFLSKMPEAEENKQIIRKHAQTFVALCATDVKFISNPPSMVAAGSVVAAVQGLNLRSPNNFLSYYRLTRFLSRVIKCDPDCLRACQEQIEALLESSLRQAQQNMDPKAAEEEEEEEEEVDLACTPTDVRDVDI
(§2) Additional inhibition assays were performed as described above.

The next assay deals with CDK6-CYCLIND3 (Homo sapiens, UniProt Q00534). Briefly: Microfluidic LabChip inhibition assay, CDK6-CYCLIND3. Format: biochemical. Particulars: ATP 300 μM. The method, then: as §1, §2
Chain of CDK6-CYCLIND3 (Q00534 whole entry): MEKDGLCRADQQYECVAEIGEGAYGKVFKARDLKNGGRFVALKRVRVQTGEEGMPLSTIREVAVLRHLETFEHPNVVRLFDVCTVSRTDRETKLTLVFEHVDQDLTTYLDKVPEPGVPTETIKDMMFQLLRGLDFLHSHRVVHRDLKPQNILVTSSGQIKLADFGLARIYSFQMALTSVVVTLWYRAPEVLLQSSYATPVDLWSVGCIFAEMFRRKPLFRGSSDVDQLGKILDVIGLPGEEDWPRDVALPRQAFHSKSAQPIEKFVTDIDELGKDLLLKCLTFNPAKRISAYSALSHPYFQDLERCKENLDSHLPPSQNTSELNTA
Chain of CDK6-CYCLIND3 (P30281 whole entry partner): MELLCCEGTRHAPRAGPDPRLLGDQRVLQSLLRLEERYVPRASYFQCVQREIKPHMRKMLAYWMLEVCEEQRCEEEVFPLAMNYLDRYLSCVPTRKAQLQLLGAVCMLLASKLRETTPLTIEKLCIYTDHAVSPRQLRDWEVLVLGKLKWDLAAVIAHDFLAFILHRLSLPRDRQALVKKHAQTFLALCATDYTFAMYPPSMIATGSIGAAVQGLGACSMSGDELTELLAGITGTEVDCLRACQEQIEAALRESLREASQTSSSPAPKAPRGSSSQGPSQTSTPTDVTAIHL
The mark [1] stands for this setting: Table 3a, second values in parentheses on the line below, not explained, read-out: CDK4 CyclinD1 IC50.
Setting [2] is: Table 3b, second values in parentheses on the line below, not explained, read-out: CDK4 CyclinD1 IC50.
The mark [3] stands for this setting: Table 3a, read-out: CDK6 CyclinD3 IC50.
[4] abbreviates: Table 2, 25° C., read-out: CDK4 IC50.
The mark [5] stands for this setting: Table 2, 25° C., read-out: CDK6 IC50.

What is called IC50 is the concentration needed to halve the response being measured. As to `CNC(=O)c1cc2cnc(Nc3ccc(N4CCN(C)CC4)c(F)c3)nc2n(C2CCCC2)c1=O` [Compound B144, 8-cyclopentyl-2-((3-fluoro-4-(4-methylpiperazin-1-yl)phenyl)amino)-N-methyl-7-oxo-7,8-dihydropyrido[2,3-d]pyrimidine-6-carboxamide], the IC50 on CDK4-CYCLIND1 (setting [1]) is 13.6 nM and 10 nM; at CDK4-CYCLIND1 (setting [2]), 13.6 nM and 10 nM; at CDK6-CYCLIND3 (setting [3]) it was 138 nM.
On to `N#Cc1cc2cnc(Nc3ccc(OCCN4CCCCC4)cn3)nc2n(C2CCCC2)c1=O` [Compound B12, 8-cyclopentyl-7-oxo-2-((5-(2-(piperidin-1-yl)ethoxy)pyridin-2-yl)amino)-7,8-dihydropyrido[2,3-d]pyrimidine-6-carbonitrile], for which the IC50 on CDK4-CYCLIND1 (setting [4]) was found to be 39.3 nM; at CDK6-CYCLIND3 (setting [5]), 61.9 nM.
`N#Cc1cc2cnc(Nc3ccc(N4CCC(N5CCOCC5)CC4)c(F)c3)nc2n(C2CCCC2)c1=O` [Compound B41, 8-cyclopentyl-2-((3-fluoro-4-(4-morpholinopiperidin-1-yl)phenyl)amino)-7-oxo-7,8-dihydropyrido[2,3-d]pyrimidine-6-carbonitrile]: the IC50 at CDK4-CYCLIND1 (setting [4]) was found to be 7.88 nM; on CDK6-CYCLIND3 (setting [5]), 27.9 nM.
Take `CN(C)[C@H]1CCN(c2ccc(Nc3ncc4cc(C#N)c(=O)n(C5CCCC5)c4n3)nc2)C1` [Compound B43, (S)-8-cyclopentyl-2-((5-(3-(dimethylamino)pyrrolidin-1-yl)pyridin-2-yl)amino)-7-oxo-7,8-dihydropyrido[2,3-d]pyrimidine-6-carbonitrile]: the IC50 was 46.9 nM on CDK4-CYCLIND1 (setting [4]) and 61.5 nM on CDK6-CYCLIND3 (setting [5]).
Take `CN1CCN(c2ccc(Nc3ncc4cc(C#N)c(=O)n(C56CC(C5)C6)c4n3)nc2)CC1` [Compound B3, 8-(bicyclo[1.1.1]pentan-1-yl)-2-((5-(4-methylpiperazin-1-yl)pyridin-2-yl)amino)-7-oxo-7,8-dihydropyrido[2,3-d]pyrimidine-6-carbonitrile]: the IC50 is 504 nM on CDK4-CYCLIND1 (setting [4]) and 432 nM at CDK6-CYCLIND3 (setting [5]).
With `CN1CCN(c2ccc(Nc3ncc4cc(C(=O)N(C)C)c(=O)n(C5CCCC5)c4n3)nc2)CC1` [Compound B141, 8-cyclopentyl-N,N-dimethyl-2-((5-(4-methylpiperazin-1-yl)pyridin-2-yl)amino)-7-oxo-7,8-dihydropyrido[2,3-d]pyrimidine-6-carboxamide], the figures for the IC50 on CDK4-CYCLIND1 (setting [1]), on CDK4-CYCLIND1 (setting [2]) and at CDK6-CYCLIND3 (setting [3]) were 715 nM, 715 nM and 1990 nM, respectively.
With `CC(=O)c1c(C)c2cnc(Nc3ccc(OCCN(C)C)nc3)nc2n(C2CCCC2)c1=O` [Compound B63, 6-acetyl-8-cyclopentyl-2-((6-(2-(dimethylamino)ethoxy)pyridin-3-yl)amino)-5-methylpyrido[2,3-d]pyrimidin-7(8H)-one], the IC50 was 8.64 nM and 6.36 nM on CDK4-CYCLIND1 (setting [1]); 8.64 nM and 6.36 nM on CDK4-CYCLIND1 (setting [2]); 37 nM on CDK6-CYCLIND3 (setting [3]).
As for `N#Cc1cc2cnc(Nc3ccc(C4=CCNCC4)cn3)nc2n(C2CCCC2)c1=O` [Compound B9, 8-cyclopentyl-7-oxo-2-((1′,2′,3′,6′-tetrahydro-[3,4′-bipyridin]-6-yl)amino)-7,8-dihydropyrido[2,3-d]pyrimidine-6-carbonitrile], the half-inhibitory concentration (IC50) is 33.8 nM on CDK4-CYCLIND1 (setting [4]) and 37.2 nM at CDK6-CYCLIND3 (setting [5]).
On to `CN(C)[C@H]1CCN(C(=O)c2ccc(Nc3ncc4cc(C#N)c(=O)n(C5CCCC5)c4n3)cc2F)C1` [Compound B36, (S)-8-cyclopentyl-2-((4-(3-(dimethylamino)pyrrolidine-1-carbonyl)-3-fluorophenyl)amino)-7-oxo-7,8-dihydropyrido[2,3-d]pyrimidine-6-carbonitrile], for which the figures for the IC50 on CDK4-CYCLIND1 (setting [4]) and at CDK6-CYCLIND3 (setting [5]) were 13.2 nM and 73.1 nM, respectively.
For `N#Cc1cc2cnc(Nc3ccc(N4CCNCC4)cc3F)nc2n(C2CCCC2)c1=O` [Compound B26, 8-cyclopentyl-2-((2-fluoro-4-(piperazin-1-yl)phenyl)amino)-7-oxo-7,8-dihydropyrido[2,3-d]pyrimidine-6-carbonitrile], the results for the IC50 on CDK4-CYCLIND1 (setting [4]) and at CDK6-CYCLIND3 (setting [5]) were 15.4 nM and 36.8 nM, respectively.
As to `CC(=O)c1c(C)c2cnc(Nc3ccc(OCCN(C)C)cn3)nc2n(C2CCCC2)c1=O` [Compound B65, 6-acetyl-8-cyclopentyl-2-((5-(2-(dimethylamino)ethoxy)pyridin-2-yl)amino)-5-methylpyrido[2,3-d]pyrimidin-7(8H)-one], the results for the IC50 at CDK4-CYCLIND1 (setting [1]), at CDK4-CYCLIND1 (setting [2]) and on CDK6-CYCLIND3 (setting [3]) were 1.47 nM, 1.47 nM and 46.7 nM, respectively.
In the case of `N#Cc1cc2cnc(Nc3ccc(N4CCC(N5CCOCC5)CC4)cn3)nc2n(C2CCCC2)c1=O` [Compound B39, 8-cyclopentyl-2-((5-(4-morpholinopiperidin-1-yl)pyridin-2-yl)amino)-7-oxo-7,8-dihydropyrido[2,3-d]pyrimidine-6-carbonitrile], the IC50 was 9.27 nM on CDK4-CYCLIND1 (setting [4]) and 27.9 nM at CDK6-CYCLIND3 (setting [5]).
For the molecule `N#Cc1cc2cnc(N3CCC(N4CCOCC4)CC3)nc2n(C2CCCC2)c1=O` [Compound B20, 8-cyclopentyl-2-(4-morpholinopiperidin-1-yl)-7-oxo-7,8-dihydropyrido[2,3-d]pyrimidine-6-carbonitrile], the figures for the IC50 on CDK4-CYCLIND1 (setting [4]) and on CDK6-CYCLIND3 (setting [5]) were 15700 nM and at least 30000 nM, respectively.
The corresponding values for `N#Cc1cc2cnc(Nc3ccc(N4CC5(CNC5)C4)c(F)c3)nc2n(C2CCCC2)c1=O` [Compound B34, 8-cyclopentyl-2-((3-fluoro-4-(2,6-diazaspiro[3.3]heptan-2-yl)phenyl)amino)-7-oxo-7,8-dihydropyrido[2,3-d]pyrimidine-6-carbonitrile] are 1.21 nM and 3.89 nM.
The corresponding values for `CN(C)CCOc1ccc(Nc2ncc3cc(C#N)c(=O)n(C4CCCC4)c3n2)cc1` [Compound B15, 8-cyclopentyl-2-((4-(2-(dimethylamino)ethoxy)phenyl)amino)-7-oxo-7,8-dihydropyrido[2,3-d]pyrimidine-6-carbonitrile] are 4.62 nM and 14.3 nM.
`CN1CCN(c2cnc(Nc3ncc4cc(C#N)c(=O)n(C5CCCC5)c4n3)cc2C(F)(F)F)CC1` [Compound B5, 8-cyclopentyl-2-((5-(4-methylpiperazin-1-yl)-4-(trifluoromethyl)pyridin-2-yl)amino)-7-oxo-7,8-dihydropyrido[2,3-d]pyrimidine-6-carbonitrile]: the IC50 at CDK4-CYCLIND1 (setting [4]) was 25700 nM; on CDK6-CYCLIND3 (setting [5]), at least 30000 nM.
On the same counts, the results for `CN(C)[C@H]1CCN(c2ccc(Nc3ncc4cc(C#N)c(=O)n(C5CCCC5)c4n3)cc2F)C1` [Compound B45, (S)-8-cyclopentyl-2-((4-(3-(dimethylamino)pyrrolidin-1-yl)-3-fluorophenyl)amino)-7-oxo-7,8-dihydropyrido[2,3-d]pyrimidine-6-carbonitrile] are 3.68 nM and 9.86 nM.
In the case of `CC(=O)c1c(C)c2cnc(Nc3ccc(N(C)CCN(C)C)cc3)nc2n(C2CCCC2)c1=O` [Compound B64, 6-acetyl-8-cyclopentyl-2-((4-((2-(dimethylamino)ethyl)(methyl)amino)phenyl)amino)-5-methylpyrido[2,3-d]pyrimidin-7(8H)-one], the IC50 at CDK4-CYCLIND1 (setting [1]) is 8.22 nM; at CDK4-CYCLIND1 (setting [2]), 8.22 nM; at CDK6-CYCLIND3 (setting [3]), 76.1 nM.
Regarding `N#Cc1cc2cnc(Nc3ccc(N4CCC(N5CCOCC5)CC4)cc3)nc2n(C2CCCC2)c1=O` [Compound B38, 8-cyclopentyl-2-((4-(4-morpholinopiperidin-1-yl)phenyl)amino)-7-oxo-7,8-dihydropyrido[2,3-d]pyrimidine-6-carbonitrile], the values for the half-inhibitory concentration (IC50) on CDK4-CYCLIND1 (setting [4]) and on CDK6-CYCLIND3 (setting [5]) were 9.81 nM and 29.8 nM, respectively.
On the same counts, the results for `CC(C)N1CCN(c2ccc(Nc3ncc4cc(C#N)c(=O)n(C5CCCC5)c4n3)c(F)c2)CC1` [Compound B19, 8-cyclopentyl-2-((2-fluoro-4-(4-isopropylpiperazin-1-yl)phenyl)amino)-7-oxo-7,8-dihydropyrido[2,3-d]pyrimidine-6-carbonitrile] are 69.1 nM and 89.8 nM.
On the same counts, the results for `CC(C)N1CCN(c2ccc(Nc3ncc4cc(C#N)c(=O)n(C5CCCC5)c4n3)cc2F)CC1` [Compound B18, 8-cyclopentyl-2-((3-fluoro-4-(4-isopropylpiperazin-1-yl)phenyl)amino)-7-oxo-7,8-dihydropyrido[2,3-d]pyrimidine-6-carbonitrile] are 2.31 nM and 10.4 nM.
For the molecule `N#Cc1cc2cnc(Nc3ccc(N4CCC(N5CCOCC5)CC4)nc3)nc2n(C2CCCC2)c1=O` [Compound B40, 8-cyclopentyl-2-((6-(4-morpholinopiperidin-1-yl)pyridin-3-yl)amino)-7-oxo-7,8-dihydropyrido[2,3-d]pyrimidine-6-carbonitrile], the IC50 on CDK4-CYCLIND1 (setting [4]) amounted to 11.3 nM; at CDK6-CYCLIND3 (setting [5]), 30.8 nM.
The corresponding values for `CN(C)[C@H]1CCN(C(=O)c2ccc(Nc3ncc4cc(C#N)c(=O)n(C5CCCC5)c4n3)cc2)C1` [Compound B35, (S)-8-cyclopentyl-2-((4-(3-(dimethylamino)pyrrolidine-1-carbonyl)phenyl)amino)-7-oxo-7,8-dihydropyrido[2,3-d]pyrimidine-6-carbonitrile] are 3.84 nM and 22.3 nM.
As to `CC(=O)NC(=O)c1cc2cnc(Nc3ccc(N4CCN(C)CC4)cn3)nc2n(C2CCCC2)c1=O` [Compound B146, N-acetyl-8-cyclopentyl-2-((5-(4-methylpiperazin-1-yl)pyridin-2-yl)amino)-7-oxo-7,8-dihydropyrido[2,3-d]pyrimidine-6-carboxamide], the IC50 on CDK4-CYCLIND1 (setting [1]) is 459 nM; on CDK4-CYCLIND1 (setting [2]), 459 nM; on CDK6-CYCLIND3 (setting [3]), 1490 nM.
Consider `N#Cc1cc2cnc(Nc3ccc(N4CCNCC4)nc3)nc2n(C2CCCC2)c1=O` [Compound B22, 8-cyclopentyl-7-oxo-2-((6-(piperazin-1-yl)pyridin-3-yl)amino)-7,8-dihydropyrido[2,3-d]pyrimidine-6-carbonitrile], for which the IC50 on CDK4-CYCLIND1 (setting [4]) is 6.93 nM; on CDK6-CYCLIND3 (setting [5]) it was 19.7 nM.
